Results: the METLIN SMRT retention time set (Domingo-Almenara et al. 2019)

Assay: gradient 5% acetonitrile 3 min, to 50% in 2 min, to 85% in 15 min, held 3 min, 100 µL/min
Settings: column: Zorbax Extend-C18 2.1 x 50 mm; eluents: water / acetonitrile, 0.1% formic acid
Method in brief: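 Values are retention times taken from adduct peaks that software picked and an analyst inspected. The pure standards were run as mixtures of ~100 molecules on HPLC linked to a quadrupole time-of-flight mass spectrometer, in positive and negative ionization mode. A Zorbax Extend-C18 column (2.1 × 50 mm, 1.8 μm) was used at 100 μL/min with water and acetonitrile, each including 0.1% formic acid.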

Structure (SMILES) | RP-LC retention time [s]
CC(=O)Nc1ccc(S(=O)(=O)N2CCc3c(c(-c4nnc(-c5ccc(F)cc5)o4)nn3C)C2)cc1 | 783
O=C(Nc1nccs1)C1CCN(C(=O)C2c3ccccc3Oc3ccccc32)CC1 | 799
Fc1ccccc1-c1ccc(CNCc2ccc3c(c2)OCO3)o1 | 695
COc1cccc(NC(=O)C2CC(=O)N(c3ccc4c(c3)CCN4C(=O)C3CC3)C2)c1 (stereo not given) | 655
Cc1ccc(CN2CCC(N3CC4(CCCCC4)C3c3ccncc3)CC2)o1 (stereo not given) | 591
O=C(Nc1cccc(Br)c1)C1CCN(C(=O)c2cc(-c3ccncc3)n[nH]2)CC1 | 640
O=c1c2cc(-c3ccccc3)nn2ccn1Cc1noc(CN2CCOCC2)n1 | 681
O=S(=O)(NC1CCCCCC1)c1ccc(-c2nnc(C3CC3)o2)o1 | 920
C=Cc1ccc(CN2N=C(C(=O)N3CCOCC3)S(=O)(=O)c3ccc(C)cc32)cc1 | 919
CCOc1cccc(CNc2c(-c3nc(C)no3)cnc3nc(C)ccc23)c1 | 724
Cn1nc(C(=O)N2CCCC2)c2c1CCN(C(=O)CCC(=O)NC1CCCCC1)C2 | 664
CCN1CCN(c2ccc(-c3nc(-c4ccccc4)no3)cn2)CC1 | 675
O=C(NCCCN1CCOCC1)c1cc2occc2c(Nc2ccc(F)cc2)n1 | 652
CCN1CCN(CCCNC(=O)c2noc(C)c2Cn2nc(C)cc2C)CC1 | 572
Cc1cc(C)c(C)c(S(=O)(=O)N2CCC(F)(c3nc(CC(C)C)no3)CC2)c1C | 1410
O=C(Cn1nc2c(N3CCOCC3)nccn2c1=O)Nc1cc(C(F)(F)F)ccc1Cl | 827
CCc1ccccc1S(=O)(=O)N1C[C@@H]2C(=O)N(C(CC)c3cccs3)C(=O)[C@@H]2C1 (stereo not given in full) | 1070
CN1c2ccc(F)cc2C(=O)NC12CCN(C(=O)c1cccc(F)c1)CC2 | 751

Structure (SMILES) | RP-LC retention time [s]
Cc1ccc2c(c1)N(Cc1cc(F)cc(F)c1)N=C(C(=O)N1CCC(C)CC1)S2(=O)=O | 1080
N#Cc1cccc(-c2cn3c(n2)N(C(=O)c2cnccn2)CCC3)c1 | 687
O=c1[nH]cc(S(=O)(=O)N2CCCCCC2)c(=O)[nH]1 | 650
CCCCN1CCN(Cc2nc(-c3ccc(N4CCCCC4)nc3)no2)CC1 | 602
Cc1cccc(-c2noc(Cc3nnc(-c4ccc(F)cc4)o3)n2)c1 | 1070
CCOc1ccc(-c2csc3c(=O)n(Cc4cccnc4)cnc23)cc1OCC | 699
CCOc1ccc(-n2c(=O)c3sccc3n(Cc3nc(-c4ccc(F)c(Cl)c4)no3)c2=O)cc1 | 1140
Cc1cc(Br)ccc1-c1ccc(CNCCCN(C)C)o1 | 927
CC1CCN(C(=O)C2CCN(c3cc(N4CCCCC4)ncn3)CC2)CC1 | 676
CC(=O)Nc1ccc(CCc2nc3ccc(C(=O)NCc4ccc5c(c4)OCO5)cc3[nH]2)cc1 | 618
Fc1cccc(-c2nnc(-c3ccccc3Cl)o2)c1 | 1060
COc1cccc(-c2noc(N3CCN(c4ccccn4)CC3)n2)c1 | 678
Cc1nc(C)c(C(=O)N(C)C2CCc3nn(CC4CC4)c(=O)n3CC2)s1 (stereo not given) | 626
O=C(C1CCN(c2ncnc3c2oc2ccccc23)CC1)N1CCC(Cc2ccccc2)CC1 | 995
COc1ccc(-c2noc(C3CCN(CC(=O)Nc4ccc5c(c4)OCO5)CC3)n2)cc1 | 703
CCCCCn1c(=O)c2ccccc2n(Cc2nc(-c3ccc(Cl)c(F)c3)no2)c1=O | 659
Cc1cccc(OCc2nc(-c3ccc(NS(C)(=O)=O)cc3)no2)c1 | 801
c1ccc(-c2nc3cc(-c4noc(C5CCOC5)n4)ccc3o2)cc1 (stereo not given) | 1100

The remaining lines, values ahead:

RP-LC retention time [s] | Structure (SMILES)
651 | Cc1nn(C)c(C)c1CCNC(=O)Nc1ccccc1Br
1070 | COc1ccccc1C(=O)NC1(C(F)(F)F)C(=O)N(CC(C)C)C2=C1C(=O)CC(C)(C)C2 (stereo not given)
805 | O=C(c1cccs1)N1CCCC(c2nnc(-c3ccccc3)o2)C1 (stereo not given)
604 | CCN1CCCC1CNC(=O)Cn1ncn2nc(-c3ccccc3)cc2c1=O (stereo not given)
1010 | COc1cc(OC)c(NC(=O)C2CCCN(C(=O)c3cc(C)cc(C)c3)C2)cc1Cl (stereo not given)
645 | CNC(=O)c1ccc(-n2cccc2)nc1
723 | COc1cc(=O)n2c(c1C(=O)NCCC1=CCCCC1)CCCC2
774 | COCCn1cc(CCNC(=O)Nc2cccc(F)c2C)c2cccnc21
630 | COc1ccc(-n2ccnc2SCC(=O)NCc2ccc3c(c2)OCO3)c(OC)c1
714 | COc1ccc(S(=O)(=O)N2CCCC(c3nn[nH]n3)C2)cc1 (stereo not given)
556 | CCNC(=O)NCCc1cn(C)c2ncccc12
730 | O=C(Nc1nc(C(=O)N2CCc3ccccc32)co1)c1cccs1
913 | Cc1ccc(-n2c(N3CCCC(C(=O)NCCc4cccs4)C3)nc3ccsc3c2=O)cc1 (stereo not given)
669 | O=C(Nc1ccccc1NC(=O)c1ccc(Br)o1)c1cccnc1
903 | COc1ccc(S(=O)(=O)N2CCCN(c3ccc(=O)n(-c4ccc(C)c(C)c4)n3)CC2)cc1
840 | Cc1ccc(-c2nnc(CC(=O)NC(C)CCc3ccccc3)o2)cc1 (stereo not given)
908 | O=C(CCC1CCCN(S(=O)(=O)c2ccccc2F)C1)NCc1cccs1 (stereo not given)
585 | CCCCN1CCN(C(=O)C2c3ccccc3CCN2C(C)=O)CC1 (stereo not given)
733 | CSc1ccc(CNC(=O)Cn2cnc3nc4c(cc3c2=O)CCCC4)cc1
837 | Cc1nc(C)c(C(=O)Nc2cc(Cl)ccc2C)s1
1180 | Cc1ccc(Nc2nc(-c3ccc(C)cc3)c(C)s2)cc1
819 | Cn1cccc1C(=O)Nc1cnn(-c2ncc(N3CCCCC3)cn2)c1
717 | CSc1nnc(-c2nn(C)c3c2CN(C(=O)c2ccccc2Br)CC3)n1C
728 | O=C(Cn1ccc2sccc2c1=O)Nc1ccc(F)cc1
747 | Cc1nn(C2CCS(=O)(=O)C2)c(C)c1N1CCN(C(=O)c2cc3ccccc3[nH]2)CC1 (stereo not given)
875 | COc1cc(NC(=O)Cc2csc3nc(-c4ccc(Cl)cc4)cn23)cc(OC)c1OC
842 | O=C(NCc1ccccc1)c1ccc(NC(=O)C2CCC2)cc1N1CCOCC1

RP-LC retention time [s] | Structure (SMILES)
607 | COc1ccc(NC(C)=O)cc1NS(=O)(=O)C1CC1
785 | Cc1nc(C(=O)OCc2cc(-c3cccs3)on2)cs1
1090 | CC(C)c1cc(C(=O)Nc2ccc(F)cc2)nc2ccnn12
657 | CCCOc1nccnc1N1CCC(N(C)C(=O)c2ccc(C)nc2)C1 (stereo not given)
639 | CCN1C(=O)c2ccccc2Oc2ccc(C(=O)NCCC3=CCCCC3)cc21
739 | Cn1c(=O)sc2cc(S(=O)(=O)N3CCC(C(=O)NCc4ccco4)CC3)ccc21
739 | COC(=O)c1cc(OCC(=O)NCc2ccc3c(c2)OCO3)c2ccccc2n1
1060 | CC(C)NC(=O)c1sc(-n2cccc2)nc1C(C)C
704 | Cc1ccccc1Cn1cc(-c2ccncc2)cc1C(=O)NCC1CC1
616 | Cc1ccc(S(=O)(=O)N2CCn3c(nnc3C3CCN(C(C)C)C3)C2)c(C)c1 (stereo not given)
751 | COCCc1noc(C2CN(S(=O)(=O)c3ccccc3)C2)n1
681 | COc1ccc(NS(=O)(=O)c2cc(-c3[nH]ncc3C(=O)N(C)C)oc2C)c(C)c1
782 | Cc1noc2nc(C)n(CC(=O)NCC(C)c3ccccc3)c(=O)c12 (stereo not given)
1270 | CCCN1C(=O)COc2ccc(-c3noc(/C=C/c4ccccc4OC)n3)cc21
988 | N#Cc1ccsc1NC(=O)c1cccc(Oc2ccccc2)c1
619 | COc1ccc(-c2ccc(=O)n(CCCC(=O)Nc3ccccc3C(N)=O)n2)cc1OC
743 | Cc1cc(C)c(S(=O)(=O)Nc2cccc(-c3cn4cccc(C)c4n3)c2)cc1C
661 | O=C(Nc1cccc(OC(F)(F)F)c1)C1(CCO)CCN(c2ncccn2)C1 (stereo not given)
1340 | Cc1oc(-c2cccc(Cl)c2)nc1COc1cc(C)c2c(C)nn(C)c2n1
1080 | O=C(Nc1cccc(F)c1)N1CCCC1c1nc(-c2cccc(Cl)c2)no1 (stereo not given)
1300 | Cc1ccc(-c2nc(NC(=O)/C=C/c3ccc(Cl)cc3)sc2C)cc1
636 | Cc1ccc(C(=O)N2CCCn3cc(-c4cccc(C#N)c4)nc32)cn1
706 | Cc1oc(-c2[nH]ncc2C(=O)N2CCCC2)cc1S(=O)(=O)NCc1cccc(F)c1
849 | Cc1ccc(NS(=O)(=O)c2cc3c(s2)CCN(C(=O)C2CC2)C3)cc1
919 | Cc1cc(NC(=O)NC2CCN(c3ccccc3)C2=O)ccc1Br (stereo not given)
1020 | CCc1nc(-c2csc(S(=O)(=O)N3CCCC(C(=O)Nc4ccccc4Cl)C3)c2)no1 (stereo not given)
892 | O=C(Nc1ccc(N2CCN(c3ccccc3)C2=O)nc1)c1ccc(Br)o1
